Data as given in patent US5061723A, “Non-teratogenic vitamin A preparation for women of child-bearing age” (Iowa State University Research Foundation, Inc., priority 1989, dated 1991).

What was measured:
[1] = tested on: pregnant rats (fetuses); assay: Teratogenicity test in pregnant rats (single oral dose on day 8.5 of gestation; fetuses examined day 19-19.5); format: in vivo, rat
Method: All-trans retinoic acid glucuronide was tested for teratogenicity in pregnant rats.
The retinoic acid glucuronide dissolved in vegetable oil. Equivalent amount of all-trans retinoic acid was also dissolved in the vegetable oil. Groups of pregnant rats were dosed orally with either retinoid glucuronide or retinoic acid on day 8.5 of gestation. […] The rats were killed on day 19.5 of a 21 day gestational period, and the fetuses were examined for viability, growth, and developmental abnormalities.
Rats that became pregnant during the same night were selected for the study. The rats were divided into 3 groups. Rats in Group 1 received orally 55 mg of the all-trans retinoic acid glucuronide (equivalent to 35 mg of retinoic acid) or a very large dose of 108 mg of the glucuronide in peanut oil. Rats in Group 2 received orally 35 mg of all-trans retinoic acid in peanut oil. Rats in Group 3 received no retinoid and served as control. The rats were then allowed to grow normally and on day 19, they were killed and fetuses were examined.

[2] = cited from earlier work
[3] = tested on: HL-60 cells; settings: cited from earlier work; for activity in the HL-60 systems assay: compared with retinoic acid and retinol
[4] = tested on: β-glucuronidase; assay: Hydrolysis by β-glucuronidase (from E. coli); format: biochemical; settings: phosphate buffer pH 6.8, 0.5-2 hrs
Method: An analytically pure sample of retinoyl β-glucuronide was obtained by HPLC of the above preparation on a Whatman ODS-3 column (M9, 50 cm) using methanol/water (7:3) containing 10 mM ammonium acetate at a flow rate of 3 ml/min. Retinoyl β-glucuronide (tR =49.7 min) separated from traces of isomers or anomers (tR =46.4 min). The eluate carrying retinoyl β-glucuronide was diluted with water and made just acidic with 0.1N HCl. The product was extracted with ethyl acetate. The extract was washed with water, dried over anhydrous sodium sulfate, and then evaporated to dryness. The residue was dissolved in a small volume of diethyl ether and all-trans retinoyl β-glucuronide was precipitated with hexane. The solid was separated and dried. All-trans retinoyl β-glucuronide:m.p. 142°-143° C. (darkens at 125° C.); UVmax 360 nm (E1cm =1065) in methanol and 365 nm in water. The ^1 H-NMR, IR and Mass spectra and C, H analysis results were consistent with the structure.

[5] = Solubility in water; format: physicochemical; settings: all-trans retinoyl β-glucuronide
[6] = tested on: human fetus; settings: oral, 0.5 to 2 mg/kg body weight per 24 hours; cited from earlier work

In the case of `CC1=C(/C=C/C(C)=C/C=C/C(C)=C/C(=O)O)C(C)(C)CCC1` [Retinoic acid, all-trans retinoic acid, reference compound], the “outcome of pregnancy / embryos” value ([1]; same large doses of retinoic acid, oral) is listed as “did not carry the pregnancy to term--all the embryos died and were being resorbed” and the water solubility [2] is listed as “not water-soluble”.

For `CC1=C(/C=C/C(C)=C/C=C/C(C)=C/C(=O)O[C@@H]2O[C@H](C(=O)O)[C@@H](O)[C@H](O)[C@H]2O)C(C)(C)CCC1` [Retinoyl β-glucuronide, All-trans retinoyl β-glucuronide], the “activity in the HL-60 systems assay” value [3] is given as “activity similar to retinoic acid and retinol”, the “cytotoxicity to HL-60 cells, less than all-trans retinoic acid” value ([3]; in vitro, vs all-trans retinoic acid, Gallup et al. and Zile et al.) is given as 50% and the “product of incubation with β-glucuronidase” value [4] is given as “generated retinoic acid”. For the same compound, the solubility in water [5] was “soluble in water”, the condition of pups ([1]; rat, in vivo, po) was “All the pups were normal and live” and the “teratogenicity, observation in words” value ([1]; rat, in vivo, po) was “did not show any sign of teratogenicity”.

For `CC1=C(/C=C/C(C)=C/C=C/C(C)=C\C(=O)O)C(C)(C)CCC1` [isotretinoin, 13-cis form of retinoic acid], the “teratogenicity at typical clinical doses” value [6] is given as “highly teratogenic”.

In the case of `CC1=C(/C=C/C(C)=C/C=C/C(C)=C/COC2O[C@H](C(=O)O)[C@@H](O)[C@H](O)[C@H]2O)C(C)(C)CCC1` (some centres unmarked) [retinol glucuronide, reference compound], the “activity in the HL-60 systems assay” value [3] is given as “activity similar to retinoic acid and retinol”.

For `CC1=C(/C=C/C(C)=C/C=C/C(C)=C/CO)C(C)(C)CCC1` [retinol], the water solubility [2] is given as “water-insoluble”.
